The results in this text go back to patent US20190038714A1, “ANTI-INFLAMMATORY COMPOSITION COMPRISING CLAVASPIRIN PEPTIDE ANALOGUE AS EFFECTIVE INGREDIENT” (INDUSTRY-ACADEMIC COOPERATION FOUNDATION, CHOSUN UNIVERSITY, priority 2015, published 2019).

Values after ≈ are worked out from the molar mass of the structure shown. Like-named read-outs stand apart in the source and are kept apart here. A value given as a limit tells only on which side of the number the result lay.

Assay [1] concerns S. aureus MRSA 3511. The assay is described as follows: microbe, parasite or virus in culture. The note with it: Staphylococcus aureus, 24 h.
Assay [2] has as its system S. aureus MRSA 3518. The assay is described as follows: microbe, parasite or virus in culture. As to conditions: Staphylococcus aureus, 24 h.
Assay [3] deals with S. aureus MRSA 5156. The assay is described as follows: microbe, parasite or virus in culture. As to conditions: Staphylococcus aureus, 24 h.
Assay [4] deals with S. aureus MRSA 3-359. The assay is described as follows: microbe, parasite or virus in culture. The note with it: Staphylococcus aureus, 24 h.
The subject of assay [5] is S. aureus MRSA 3126. The assay is described as follows: microbe, parasite or virus in culture. As to conditions: Staphylococcus aureus, 24 h.
The test system of assay [6] is S. aureus MRSA 1870. The assay is described as follows: microbe, parasite or virus in culture. The note with it: Staphylococcus aureus, 24 h.
In assay [7] the test system is S. aureus. Put plainly: microbe, parasite or virus in culture. The note with it: Staphylococcus aureus, 24 h.
For assay [8], the system named is S. aureus MRSA 5157. Put plainly: microbe, parasite or virus in culture. The note with it: Staphylococcus aureus, 24 h.
For assay [9], the system named is S. aureus MRSA 2-122. The assay is described as follows: microbe, parasite or virus in culture. As to conditions: Staphylococcus aureus, 24 h.
The subject of assay [10] is S. aureus MRSA 4761. The assay is described as follows: microbe, parasite or virus in culture. As to conditions: Staphylococcus aureus, 24 h.
Assay [11] concerns S. aureus MRSA 1630. The assay is described as follows: microbe, parasite or virus in culture. The note with it: Staphylococcus aureus, 24 h.
Assay [12] has as its system S. aureus MRSA 0027. Put plainly: microbe, parasite or virus in culture. As to conditions: Staphylococcus aureus, 24 h.
The subject of assay [13] is S. aureus MRSA 5159. Put plainly: microbe, parasite or virus in culture. The note with it: Staphylococcus aureus, 24 h.
The subject of assay [14] is S. aureus MRSA 1635. The assay is described as follows: microbe, parasite or virus in culture. As to conditions: Staphylococcus aureus, 24 h.
Assay [15] relates to S. aureus MRSA 1870. As to conditions: 24 hours at 37° C.
Assay [16] has as its system S. aureus MRSA 3126. The note with it: 24 hours at 37° C.
Assay [17] relates to S. aureus MRSA 0027. As to conditions: 24 hours at 37° C.
Assay [18] concerns S. aureus MRSA 1635. The note with it: 24 hours at 37° C.
The test system of assay [19] is S. aureus MRSA 1630. The note with it: 24 hours at 37° C.
For assay [20], the system named is S. aureus MRSA 3518. As to conditions: 24 hours at 37° C.
Assay [21] deals with S. aureus MRSA 5156. The note with it: 24 hours at 37° C.
Assay [22] concerns S. aureus MRSA 3-359. As to conditions: 24 hours at 37° C.
Assay [23] concerns S. aureus MRSA 5157. The note with it: 24 hours at 37° C.
For assay [24], the system named is S. aureus MRSA 2-122. As to conditions: 24 hours at 37° C.
The test system of assay [25] is S. aureus MRSA 3511. As to conditions: 24 hours at 37° C.
For assay [26], the system named is S. aureus MRSA 5159. The note with it: 24 hours at 37° C.
For assay [27], the system named is S. aureus MRSA 4761. The note with it: 24 hours at 37° C.
Assay [28] relates to S. aureus. The note with it: 24 hours at 37° C.

On to `CC[C@H]1OC(=O)[C@H](C)[C@@H](O[C@H]2C[C@@](C)(OC)[C@@H](O)[C@H](C)O2)[C@H](C)[C@@H](O[C@@H]2O[C@H](C)C[C@H](N(C)C)[C@H]2O)[C@](C)(O)C[C@@H](C)C(=O)[C@H](C)[C@@H](O)[C@]1(C)O` [Erythromycin, erythromycin], for which the MIC against S. aureus MRSA 3511 [1] was above 256 µM; with S. aureus MRSA 3518 [2] it was above 256 µM; against S. aureus MRSA 5156 [3] it was above 256 µM; in the assay on S. aureus MRSA 3-359 [4], above 256 µM; in the assay with S. aureus MRSA 3126 [5] it was 128 µM (≈ 93.9 µg/mL); with S. aureus MRSA 1870 [6], above 256 µM. Besides, the MIC in the assay with S. aureus [7] was 1 µM (≈ 0.734 µg/mL); against S. aureus MRSA 5157 [8] it was 16 µM (≈ 11.7 µg/mL); with S. aureus MRSA 2-122 [9], above 256 µM; with S. aureus MRSA 4761 [10], above 256 µM; in the assay with S. aureus MRSA 1630 [11], above 256 µM; in the assay on S. aureus MRSA 0027 [12], above 256 µM. In addition, the MIC is 16 µM (≈ 11.7 µg/mL) against S. aureus MRSA 5159 [13] and above 256 µM against S. aureus MRSA 1635 [14].

Take `CC[C@H](C)[C@H](NC(=O)CN)C(=O)NCC(=O)N[C@@H](C)C(=O)N[C@H](C(=O)N[C@@H](CC(C)C)C(=O)N[C@@H](CCCCN)C(=O)N[C@H](C(=O)N[C@@H](CC(C)C)C(=O)N[C@H](C(=O)N[C@H](C(=O)NCC(=O)N[C@@H](CC(C)C)C(=O)N1CCC[C@H]1C(=O)N[C@@H](C)C(=O)N[C@@H](CC(C)C)C(=O)N[C@H](C(=O)N[C@@H](CO)C(=O)N[C@@H](Cc1c[nH]c2ccccc12)C(=O)N[C@H](C(=O)N[C@@H](CCCCN)C(=O)N[C@@H](CCCNC(=N)N)C(=O)N[C@@H](CCCCN)C(=O)N[C@@H](CCCNC(=N)N)C(=O)N[C@@H](CCC(N)=O)C(=O)N[C@@H](CCC(N)=O)C(N)=O)[C@@H](C)CC)[C@@H](C)CC)[C@@H](C)O)[C@@H](C)O)C(C)C)C(C)C` [Melittin, melittin]: the MIC is 4 µM (≈ 11.4 µg/mL) in the assay on S. aureus MRSA 1870 [15]; 2 µM (≈ 5.69 µg/mL) in the assay on S. aureus MRSA 3126 [16]; 2 µM (≈ 5.69 µg/mL) against S. aureus MRSA 0027 [17]; 2 µM (≈ 5.69 µg/mL) with S. aureus MRSA 1635 [18]; 4 µM (≈ 11.4 µg/mL) against S. aureus MRSA 1630 [19]; 4 µM (≈ 11.4 µg/mL) with S. aureus MRSA 3518 [20]. Besides, the MIC against S. aureus MRSA 5156 [21] was 4 µM (≈ 11.4 µg/mL); in the assay with S. aureus MRSA 3-359 [22], 4 µM (≈ 11.4 µg/mL); in the assay on S. aureus MRSA 5157 [23] it was 2 µM (≈ 5.69 µg/mL); with S. aureus MRSA 2-122 [24], 4 µM (≈ 11.4 µg/mL); against S. aureus MRSA 3511 [25] it was 4 µM (≈ 11.4 µg/mL); in the assay on S. aureus MRSA 5159 [26], 8 µM (≈ 22.8 µg/mL). The MIC in the assay with S. aureus MRSA 4761 [27] was determined as 4 µM (≈ 11.4 µg/mL).

As to gentamycin, the MIC was 1 µM against S. aureus [28]; 16 µM in the assay on S. aureus MRSA 1870 [15]; 32 µM against S. aureus MRSA 3126 [16]; 64 µM against S. aureus MRSA 0027 [17]; above 256 µM in the assay with S. aureus MRSA 1635 [18]; 64 µM against S. aureus MRSA 1630 [19]. Besides, the MIC is above 256 µM in the assay on S. aureus MRSA 3518 [20]; above 256 µM in the assay on S. aureus MRSA 5156 [21]; 64 µM with S. aureus MRSA 3-359 [22]; 16 µM against S. aureus MRSA 5157 [23]; 128 µM in the assay on S. aureus MRSA 2-122 [24]; above 256 µM against S. aureus MRSA 3511 [25]. Also, the MIC in the assay with S. aureus MRSA 5159 [26] amounted to 16 µM; against S. aureus MRSA 4761 [27], 32 µM.
